Test results taken from ChEMBL document CHEMBL3832761, “MMV Pathogen Box Bioactivity Data” (2017).

Legend:
[1] = tested on: Leishmania donovani; assay: AntiLeishmania activity L. donovani (axenic) IC50 (uM); format: functional, organism-based
[2] = tested on: Trypanosoma brucei; assay: AntiTrypanosoma brucei activity T. b. rhodesiense IC50 (uM); format: functional, organism-based
[3] = tested on: Leishmania donovani; assay: AntiLeishmania activity L. donovani (macrophages) IC50 (uM); format: functional, organism-based
[4] = tested on: HepG2; assay: Cytotoxicity data HepG2 CC20 (uM); format: functional
[5] = tested on: MRC5; assay: MRC5 CC50 (uM) Cytotoxicity; format: functional; conditions: Homo sapiens
[6] = tested on: L6; assay: L6 CC50 (uM) Cytotoxicity; format: functional; conditions: Rattus norvegicus
[7] = PMM CC50 (uM) Cytotoxicity; format: functional; conditions: Macrophage
[8] = tested on: Trypanosoma cruzi; assay: AntiTrypanosoma cruzi activity IC50 (uM); format: functional, organism-based
[9] = tested on: Leishmania infantum; assay: AntiLeishmania activity L. infantum (macrophages) IC50 (uM); format: functional, organism-based
[10] = tested on: Trypanosoma brucei; assay: AntiTrypanosoma brucei activity T. b. brucei IC50 (uM); format: functional, organism-based
[11] = tested on: Leishmania major; assay: AntiLeishmania activity L. major IC50 (uM); format: functional, organism-based
[12] = tested on: Leishmania; assay: AntiLeishmania activity Toxicity on infected PMM (uM); format: functional
[13] = tested on: Onchocerca gutturosa; assay: AntiOnchocerca activity O. gutturosa adult males: Motility reduction at 12.5 uM (%); format: functional; design: scale not given: the % may be the effect or the level left
[14] = tested on: Onchocerca lienalis; assay: AntiOnchocerca activity O. lienalis microfilariae Motility reduction (%); format: functional; design: concentration or dose not given beside the values
[15] = tested on: Onchocerca gutturosa; assay: AntiOnchocerca activity O. gutturosa adult males: MTT reduction at 12.5 uM (%); format: functional; design: scale not given: the % may be the effect or the level left
[16] = tested on: Onchocerca gutturosa; assay: AntiOnchocerca activity O. gutturosa adult males: EC50 (uM); format: functional, organism-based
[17] = HL60 CC50 (uM) Cytotoxicity; format: functional; conditions: HL-60
[18] = tested on: Toxoplasma gondii; assay: AntiToxoplasma gondii activity data 2-day killing assay: inhibition at 10 uM (%) Experiment E; format: functional
[19] = tested on: Toxoplasma gondii; assay: AntiToxoplasma gondii activity data Inhibition of plaque forming efficiency (%) Experiment B; format: functional; design: concentration or dose not given beside the values
[20] = tested on: Toxoplasma gondii; assay: AntiToxoplasma gondii activity data 2-day killing assay: inhibition at 10 uM (%) Experiment C; format: functional; conditions: 48 h
[21] = tested on: Toxoplasma gondii; assay: AntiToxoplasma gondii activity data 2-day killing assay: IC50 (uM), Experiment F; format: functional, organism-based
[22] = tested on: Toxoplasma gondii; assay: AntiToxoplasma gondii activity data 2-day killing assay: inhibition at 10 uM (%) Experiment D; format: functional
[23] = tested on: Toxoplasma gondii; assay: AntiToxoplasma gondii activity data 2-day killing assay: IC50 (uM), Experiment G; format: functional, organism-based
[24] = tested on: Toxoplasma gondii; assay: AntiToxoplasma gondii activity data Inhibition of plaque forming efficiency (%) Experiment A; format: functional; design: concentration or dose not given beside the values
[25] = tested on: Onchocerca volvulus; assay: AntiOnchocerca activity O. volvulus L3 Molting assay: IC50 (uM); format: functional, organism-based
[26] = tested on: Brugia pahangi; assay: AntiBrugia pahangi activity Average inhibition motility at 10 uM (%); format: functional
[27] = tested on: Onchocerca volvulus; assay: AntiOnchocerca activity O. volvulus L3 Molting assay: inhibition at 10 uM (%); format: functional
[28] = tested on: Onchocerca ochengi; assay: AntiOnchocerca activity O. ochengi adult females: final mean inhibition motility at 10 uM on Day 7 (%); format: functional
[29] = tested on: Onchocerca ochengi; assay: AntiOnchocerca activity O. ochengi adult males: final mean inhibition motility at 10 uM on Day 5 (%); format: functional
[30] = tested on: Brugia pahangi; assay: AntiBrugia pahangi activity Average day 3 IC50 (uM); format: functional, organism-based; conditions: 72 h
[31] = tested on: Dengue virus; assay: AntiDengue activity HCI DV1/A549 IC50 (uM); format: functional, organism-based
[32] = tested on: A549; assay: A549 CC50 (uM) Cytotoxicity; format: functional; conditions: Homo sapiens
[33] = tested on: Dengue virus; assay: AntiDengue activity HCI DV2/A549 IC50 (uM); format: functional, organism-based
[34] = tested on: Dengue virus; assay: AntiDengue activity HCI DV4/A549 IC50 (uM); format: functional, organism-based
[35] = tested on: HepG2; assay: HepG2 CC50 (uM) Cytotoxicity; format: functional; conditions: Homo sapiens
[36] = tested on: Dengue virus; assay: AntiDengue activity HCI DV3/A549 IC50 (uM); format: functional, organism-based
[37] = AntiChikungunya activity HCI CHIKV/Huh7 IC50 (uM); format: functional, Chikungunya virus
[38] = tested on: Dengue virus; assay: AntiDengue activity HCI DV2/Huh7 IC50 (uM); format: functional, organism-based; conditions: Huh-7
[39] = HUH7 CC50 (uM) Cytotoxicity; format: functional; conditions: Huh-7
[40] = tested on: Ancylostoma ceylanicum; assay: microbe, parasite or virus in culture
[41] = tested on: Ancylostoma ceylanicum; assay: microbe, parasite or virus in culture; remark: listed apart in the source

`Cc1nc(-c2ccccn2)nc(N2CCC(Cc3ccccc3)C2)c1Cl` (stereo not drawn) showed an IC50 [1] of 0.03 µM, an IC50 [2] of 5.62 µM and an IC50 [3] of 4.2 µM. For the same compound, the CC20 [4] was 10.2 µM, the CC50 [5] was 15.5 µM and the CC50 [6] was 15.2 µM. For the same compound, the CC50 [7] was 16 µM, the IC50 [8] was 0.97 µM and the IC50 [9] was 4.03 µM. For the same compound, the IC50 [10] was 6.61 µM, the IC50 [11] was 8.96 µM and the “Toxicity on infected macrophages” value [12] was 16.7 µM.

In the case of `CC(C)(C)OC(=O)N1CCN(c2cc(-c3ccc(Oc4ccccc4)cc3)n[nH]2)CC1`, the IC50 [1] is reported as 1.32 µM, the IC50 [2] is reported as 2.7 µM and the IC50 [3] is reported as over 10 µM. For the same compound, the CC20 [4] was 4.03 µM, the CC50 [5] was over 32 µM and the CC50 [6] was 4.8 µM. The CC50 [7] was 16 µM, the IC50 [8] was 9.37 µM and the IC50 [9] was 10.2 µM. For the same compound, the IC50 [10] was 3.89 µM, the IC50 [11] was 13 µM and the “Toxicity on infected macrophages” value [12] was 20 µM.

Compound `Oc1c(I)cc(I)c2cccnc12` [IODOQUINOL] has an Activity [13] of 100%, an Activity [14] of 93.3% and a CC20 [4] of 2.53 µM. It also gave an Activity [15] of 88% and an EC50 [16] of 0.46 µM.

With `COC(=O)C1=C(C)NC(C)=C(C(=O)OC(C)C)C1c1cccc2nonc12` (stereo not drawn) [ISRADIPINE] the Activity [13] was 100%, the Activity [14] was 53% and the CC20 [4] was 66 µM. For the same compound, the Activity [15] was 79% and the EC50 [16] was 0.89 µM.

`CC(Oc1cccc(Cl)c1)C(=O)Nc1ccc2oc(-c3ccncc3)nc2c1` (stereo not drawn) gave a CC50 [17] of over 25 µM, an Inhibition [18] of 81.6% and an Inhibition [19] of 100%. For the same compound, the inhibition at 10 µM [20] was 0%, the IC50 [21] was “no inhibition” and the Inhibition [22] was 85.4%. The IC50 [23] was “no inhibition” and the Inhibition [24] was 100%.

For `CCCCc1ccc(NC(=O)Nc2ccc(O[C@H]3CCCC[C@@H]3N(C)c3ccccc3)c(F)c2)cc1`, the CC50 [17] was over 6.2 µM, the Activity [13] was 14.3% and the Activity [14] was 33.3%. The CC20 [4] was 5.77 µM, the Activity [15] was 0% and the IC50 [25] was 1.09 µM. The Inhibition [26] was 61%, the Inhibition [27] was 100% and the Inhibition [28] was 57%. For the same compound, the Inhibition [29] was 61% and the IC50 [30] was 8.4 µM.

In the case of `CC(=O)N1CCN(c2ccc(Oc3ccc(Cl)cc3O)cc2)CC1`, the CC50 [17] is reported as over 50 µM, the Inhibition [18] is reported as 64.6% and the Inhibition [19] is reported as about 90%. For the same compound, the inhibition at 10 µM [20] was 71%, the IC50 [21] was “no inhibition” and the Inhibition [22] was 22.4%. For the same compound, the IC50 [23] was “no inhibition” and the Inhibition [24] was about 90%.

For `CS(=O)(=O)N1CCC(CCn2nc(Cc3cccc4ccccc34)c3c(N)ncnc32)CC1`, the CC50 [17] was over 50 µM, the Inhibition [18] was 20.6% and the Inhibition [19] was 100%. The inhibition at 10 µM [20] was 0%, the IC50 [21] was “no inhibition” and the Inhibition [22] was 63.9%. For the same compound, the IC50 [23] was “no inhibition” and the Inhibition [24] was 100%.

`CC(C)(C)OC(=O)N1CCC(Cn2nc(-c3cnc4ccccc4c3)c3c(N)ncnc32)CC1` showed a CC50 [17] of over 50 µM, an Inhibition [18] of 0% and an Inhibition [19] of about 75%. It also gave an inhibition at 10 µM [20] of 1.88%, an Inhibition [22] of 36.1% and an Inhibition [24] of 100%.

In the case of `CC(C)(C)C(=O)N(CCCCCCN1C[C@H](O)[C@@H](O)[C@H](O)[C@H]1CO)C1CCCCCC1`, the IC50 [31] is reported as 0.07 µM, the CC50 [32] is reported as over 50 µM and the IC50 [33] is reported as 0.6 µM. For the same compound, the IC50 [34] was 0.2 µM, the CC50 [35] was over 50 µM and the IC50 [36] was 0.08 µM. The IC50 [37] was over 50 µM, the IC50 [38] was 2 µM and the CC50 [39] was over 50 µM.

Compound `OC[C@H]1O[C@@H](n2c3ccc(Cl)cc3c3c(-c4cc5ccccc5o4)ncnc32)C(O)[C@H]1O` (stereo partly drawn) has an IC50 [31] of 5 µM, a CC50 [32] of over 50 µM and an IC50 [33] of 7 µM. For the same compound, the IC50 [34] was 3 µM, the CC50 [35] was 10 µM and the IC50 [36] was 3 µM. The IC50 [37] was over 50 µM, the IC50 [38] was over 50 µM and the CC50 [39] was 1 µM.

For `CN1CCCC1CCO[C@](C)(c1ccccc1)c1ccc(Cl)cc1` (stereo partly drawn), the inhibition at 200 µM [40] was 76%, the CC20 [4] was 9.28 µM and the inhibition at 50 µM [41] was 47%.

`Cc1cc2nc(NC(=O)C(C)(C)C)nc(Cl)c2n1Cc1ccc(Cl)cc1` gave a CC50 [17] of over 25 µM, an Inhibition [18] of 0% and an Inhibition [19] of about 50%. For the same compound, the inhibition at 10 µM [20] was 0%, the IC50 [21] was “no inhibition” and the Inhibition [22] was 63.9%. The IC50 [23] was “no inhibition” and the Inhibition [24] was about 85%.

For `COC(=O)c1ccc(F)cc1NS(=O)(=O)c1cccc(-c2cnn(Cc3ccccc3)c2)c1`, the IC50 [31] was 5 µM, the CC50 [32] was over 50 µM and the IC50 [33] was 6 µM. For the same compound, the IC50 [34] was over 50 µM, the CC50 [35] was 10 µM and the IC50 [36] was over 50 µM. For the same compound, the IC50 [37] was 10 µM, the IC50 [38] was 10 µM and the CC50 [39] was 20 µM.
